Data as given in PubChem BioAssay AID330 (DTP/NCI, 2004).
Several values for one entry are separate records, joined by “and”; a condition that tells them apart may be missing. Equal values may be shown once. Inconclusive results and toxic doses are left out.

Tested on: P388 leukemia ip, CD2F1 mice, survival T/C
Test: NCI In Vivo Anticancer Drug Screen. Data for tumor model P388 Leukemia (intraperitoneal) in CD2F1 (CDF1) mice
Settings: endpoint: median survival time, higher = longer survival
How it was run: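 Mice carrying the transplanted tumor received test compound or vehicle. Survival was recorded in each group, and the value is the treated-group measurement divided by that of the vehicle-treated control group.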

[1] = dose: 1.56 mg/kg/injection, schedule: Q01DX009 (ip), vehicle: Klucel (hydroxypropylcellulose) (HPC)
[2] = dose: 3.12 mg/kg/injection, schedule: Q01DX009 (ip), vehicle: Klucel (hydroxypropylcellulose) (HPC)
[3] = dose: 6.25 mg/kg/injection, schedule: Q01DX009 (ip), vehicle: Klucel (hydroxypropylcellulose) (HPC)
[4] = dose: 50.0 mg/kg/injection, schedule: Q04DX002 (ip), vehicle: saline with Tween-80

## CCCC1C/C=C/C=C/C=C/C=C/C(OC2OC(C)C(O)C(N)C2O)CC(O)C(C(=O)O)C(O)CC(=O)CC(O)CCCC(=O)CC(O)C(CC)C(=O)O1 (centres undefined)
dose: 2.5 mg/kg/injection, schedule: Q01DX009 (ip), vehicle: Klucel (hydroxypropylcellulose) (HPC)
  T/C: 94 % of control
dose: 5.0 mg/kg/injection, schedule: Q01DX009 (ip), vehicle: Klucel (hydroxypropylcellulose) (HPC)
  T/C: 106 % of control
dose: 10.0 mg/kg/injection, schedule: Q01DX009 (ip), vehicle: Klucel (hydroxypropylcellulose) (HPC)
  T/C: 92 % of control
dose: 20.0 mg/kg/injection, schedule: Q01DX009 (ip), vehicle: Klucel (hydroxypropylcellulose) (HPC)
  T/C: 87 % of control

## C[n+]1c(-c2ccccc2)c2ccccn2c1Sc1n2ccccc2c(-c2ccccc2)[n+]1C
[1]
  T/C: 100 % of control
[2]
  T/C: 102 % of control
[3]
  T/C: 90 % of control and 97 % of control

## CCOC(=O)c1[nH]c(=O)c2cccnc2c1O
dose: 30.0 mg/kg/injection, schedule: Q01DX005 (ip), vehicle: Klucel (hydroxypropylcellulose) (HPC)
  T/C: 97 % of control
dose: 60.0 mg/kg/injection, schedule: Q01DX005 (ip), vehicle: Klucel (hydroxypropylcellulose) (HPC)
  T/C: 94 % of control and 98 % of control
dose: 120.0 mg/kg/injection, schedule: Q01DX005 (ip), vehicle: Klucel (hydroxypropylcellulose) (HPC)
  T/C: 106 % of control and 96 % of control
dose: 240.0 mg/kg/injection, schedule: Q01DX005 (ip), vehicle: Klucel (hydroxypropylcellulose) (HPC)
  T/C: 113 % of control

## Cc1cnc(NCCCNc2ncc(C)c(-c3ccccc3O)n2)nc1-c1ccccc1O
dose: 50.0 mg/kg/injection, schedule: Q01DX005 (ip), vehicle: Klucel (hydroxypropylcellulose) (HPC)
  T/C: 88 % of control
dose: 100.0 mg/kg/injection, schedule: Q01DX005 (ip), vehicle: Klucel (hydroxypropylcellulose) (HPC)
  T/C: 86 % of control
dose: 200.0 mg/kg/injection, schedule: Q01DX005 (ip), vehicle: Klucel (hydroxypropylcellulose) (HPC)
  T/C: 92 % of control

## CCOC(=O)Nc1cc2c(c(N)n1)N=C(CN(C)c1ccccc1)CN2
[1]
  T/C: 112 % of control and 123 % of control
[2]
  T/C: 100 % of control and 111 % of control
[3]
  T/C: 106 % of control and 123 % of control
dose: 12.5 mg/kg/injection, schedule: Q01DX009 (ip), vehicle: Klucel (hydroxypropylcellulose) (HPC)
  T/C: 124 % of control
dose: 25.0 mg/kg/injection, schedule: Q01DX009 (ip), vehicle: Klucel (hydroxypropylcellulose) (HPC)
  T/C: 109 % of control and 123 % of control
dose: 50.0 mg/kg/injection, schedule: Q01DX009 (ip), vehicle: Klucel (hydroxypropylcellulose) (HPC)
  T/C: 98 % of control
dose: 67.0 mg/kg/injection, schedule: Q01DX001 (ip), vehicle: Klucel (hydroxypropylcellulose) (HPC)
  T/C: 195 % of control
dose: 100.0 mg/kg/injection, schedule: Q01DX001 (ip), vehicle: Klucel (hydroxypropylcellulose) (HPC)
  T/C: 178 % of control

## CCC(=O)OCC1OC(OC2c3cc4c(cc3C(c3cc(OC)c(OC)c(OC)c3)C3C(=O)OCC23)OCO4)C(OC(=O)CC)C(OC(=O)CC)C1OC(=O)CC (centres undefined)
dose: 12.5 mg/kg/injection, schedule: Q01DX005 (ip), vehicle: saline with Tween-80
  T/C: 98 % of control
dose: 25.0 mg/kg/injection, schedule: Q01DX005 (ip), vehicle: saline with Tween-80
  T/C: 91 % of control
dose: 50.0 mg/kg/injection, schedule: Q01DX005 (ip), vehicle: saline with Tween-80
  T/C: 88 % of control and 89 % of control

## O=C(OC1CC2CCC(C1)S2)c1ccco1 (centres undefined)
[4]
  T/C: 109 % of control
dose: 100.0 mg/kg/injection, schedule: Q04DX002 (ip), vehicle: saline with Tween-80
  T/C: 109 % of control
dose: 200.0 mg/kg/injection, schedule: Q04DX002 (ip), vehicle: saline with Tween-80
  T/C: 110 % of control

## CCOC(=O)Nc1cc(NCC(=O)c2ccc(Cl)cc2)c([N+](=O)[O-])c(N)n1
dose: 50.0 mg/kg/injection, schedule: Q01DX001 (ip), vehicle: saline with Tween-80
  T/C: 92 % of control
dose: 100.0 mg/kg/injection, schedule: Q01DX001 (ip), vehicle: saline with Tween-80
  T/C: 90 % of control
dose: 200.0 mg/kg/injection, schedule: Q01DX001 (ip), vehicle: saline with Tween-80
  T/C: 88 % of control

## C=CCNC(=S)NCC
dose: 100.0 mg/kg/injection, schedule: Q01DX009 (ip), vehicle: saline with Tween-80
  T/C: 100 % of control
dose: 200.0 mg/kg/injection, schedule: Q01DX009 (ip), vehicle: saline with Tween-80
  T/C: 104 % of control
dose: 400.0 mg/kg/injection, schedule: Q01DX009 (ip), vehicle: saline with Tween-80
  T/C: 109 % of control

## C=C1C(=O)OC2/C=C(\C)CC/C=C(/C=O)C(O)C(OC(=O)C(C)C)C12 (centres undefined)
dose: 5.0 mg/kg/injection, schedule: Q01DX009 (ip), vehicle: other
  T/C: 112 % of control
dose: 20.0 mg/kg/injection, schedule: Q01DX009 (ip), vehicle: other
  T/C: 94 % of control

## CNC(=O)n1c(N)nc(-c2ccccc2)c1-c1ccccc1
dose: 12.5 mg/kg/injection, schedule: Q04DX002 (ip), vehicle: saline with Tween-80
  T/C: 115 % of control
dose: 25.0 mg/kg/injection, schedule: Q04DX002 (ip), vehicle: saline with Tween-80
  T/C: 115 % of control
[4]
  T/C: 117 % of control
